# Measurements taken from PubChem BioAssay (NCI).
#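 Assay format: 96-well plates, 48-hour exposure. GI50 = concentration required for 50% inhibition of growth. TGI marks complete inhibition of growth.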
# Legend:
# Test in all cases: growth of human tumour cells (NCI), 48 h
# HCC-2998 colon = tested on: HCC-2998 colon
# CCRF-CEM leukemia = tested on: CCRF-CEM leukemia
# SW-620 colon = tested on: SW-620 colon
# UACC-62 melanoma = tested on: UACC-62 melanoma
# SF-295 CNS = tested on: SF-295 CNS
# HS 578T breast = tested on: HS 578T breast
# SK-MEL-5 melanoma = tested on: SK-MEL-5 melanoma
# COLO 205 colon = tested on: COLO 205 colon
# ACHN renal = tested on: ACHN renal
# SF-268 CNS = tested on: SF-268 CNS
# CAKI-1 renal = tested on: CAKI-1 renal
# KM12 colon = tested on: KM12 colon
# MOLT-4 leukemia = tested on: MOLT-4 leukemia
# LOX IMVI melanoma = tested on: LOX IMVI melanoma
# M14 melanoma = tested on: M14 melanoma
# IGROV1 ovarian = tested on: IGROV1 ovarian
# SF-539 CNS = tested on: SF-539 CNS
# 786-0 renal = tested on: 786-0 renal
# SNB-75 CNS = tested on: SNB-75 CNS
# HT29 colon = tested on: HT29 colon
# RPMI-8226 leukemia = tested on: RPMI-8226 leukemia
# HOP-62 NSCLC = tested on: HOP-62 NSCLC
# OVCAR-4 ovarian = tested on: OVCAR-4 ovarian
# NCI-H226 lung = tested on: NCI-H226 lung
# NCI/ADR-RES ovarian = tested on: NCI/ADR-RES ovarian
# U251 CNS = tested on: U251 CNS
# MDA-MB-435 = tested on: MDA-MB-435
# UACC-257 melanoma = tested on: UACC-257 melanoma
# SNB-19 CNS = tested on: SNB-19 CNS
# T-47D breast = tested on: T-47D breast
# SN12C renal = tested on: SN12C renal
# OVCAR-8 ovarian = tested on: OVCAR-8 ovarian
# MALME-3M melanoma = tested on: MALME-3M melanoma
# HCT-116 colon = tested on: HCT-116 colon
# NCI-H460 lung = tested on: NCI-H460 lung
# HL-60(TB) leukemia = tested on: HL-60(TB) leukemia
# HOP-92 NSCLC = tested on: HOP-92 NSCLC
# A549 NSCLC = tested on: A549 NSCLC
# HCT-15 colon = tested on: HCT-15 colon
# DU-145 prostate = tested on: DU-145 prostate
# OVCAR-3 ovarian = tested on: OVCAR-3 ovarian
# SK-MEL-28 melanoma = tested on: SK-MEL-28 melanoma
# RXF 393 renal = tested on: RXF 393 renal
# OVCAR-5 ovarian = tested on: OVCAR-5 ovarian
# SK-OV-3 ovarian = tested on: SK-OV-3 ovarian
# A498 renal = tested on: A498 renal
# BT-549 breast = tested on: BT-549 breast
# NCI-H522 lung = tested on: NCI-H522 lung
# NCI-H23 lung = tested on: NCI-H23 lung
# K-562 leukemia = tested on: K-562 leukemia
# TK-10 renal = tested on: TK-10 renal
# UO-31 renal = tested on: UO-31 renal
# SK-MEL-2 melanoma = tested on: SK-MEL-2 melanoma
# MDA-MB-231 breast = tested on: MDA-MB-231 breast
# PC-3 prostate = tested on: PC-3 prostate
# EKVX NSCLC = tested on: EKVX NSCLC
smiles,measurement,setting,value
O=C(C(Br)C(Br)c1ccccc1)C(Br)C(Br)c1ccccc1 (configuration not stated),GI50,HCC-2998 colon,1.91 µM
same,TGI,HCC-2998 colon,3.52 µM
same,GI50,CCRF-CEM leukemia,0.236 µM
same,TGI,CCRF-CEM leukemia,0.886 µM
same,GI50,SW-620 colon,0.321 µM
same,TGI,SW-620 colon,1.09 µM
same,GI50,UACC-62 melanoma,1.32 µM
same,TGI,UACC-62 melanoma,2.69 µM
same,GI50,SF-295 CNS,4.6 µM
same,TGI,SF-295 CNS,13.6 µM
same,GI50,HS 578T breast,2.58 µM
same,TGI,HS 578T breast,8.4 µM
same,GI50,SK-MEL-5 melanoma,1.69 µM
same,TGI,SK-MEL-5 melanoma,3.51 µM
same,GI50,COLO 205 colon,1.07 µM
same,TGI,COLO 205 colon,2.8 µM
same,GI50,ACHN renal,0.253 µM
same,TGI,ACHN renal,0.63 µM
same,GI50,SF-268 CNS,2.26 µM
same,TGI,SF-268 CNS,5.62 µM
same,GI50,CAKI-1 renal,0.389 µM
same,TGI,CAKI-1 renal,1.37 µM
same,GI50,KM12 colon,2.1 µM
same,TGI,KM12 colon,4.27 µM
same,GI50,MOLT-4 leukemia,0.348 µM
same,TGI,MOLT-4 leukemia,1.41 µM
same,GI50,LOX IMVI melanoma,0.633 µM
same,TGI,LOX IMVI melanoma,1.88 µM
same,GI50,M14 melanoma,1.95 µM
same,TGI,M14 melanoma,4.41 µM
same,GI50,IGROV1 ovarian,1.61 µM
same,TGI,IGROV1 ovarian,3.41 µM
same,GI50,SF-539 CNS,1.66 µM
same,TGI,SF-539 CNS,3.19 µM
same,GI50,786-0 renal,0.828 µM
same,TGI,786-0 renal,2.21 µM
same,GI50,SNB-75 CNS,1.77 µM
same,TGI,SNB-75 CNS,6.14 µM
same,GI50,HT29 colon,0.346 µM
same,TGI,HT29 colon,1.2 µM
same,GI50,RPMI-8226 leukemia,0.325 µM
same,TGI,RPMI-8226 leukemia,1.33 µM
same,GI50,HOP-62 NSCLC,3.08 µM
same,TGI,HOP-62 NSCLC,8.89 µM
same,GI50,OVCAR-4 ovarian,1.14 µM
same,TGI,OVCAR-4 ovarian,2.52 µM
same,GI50,NCI-H226 lung,1.74 µM
same,TGI,NCI-H226 lung,3.71 µM
same,GI50,NCI/ADR-RES ovarian,2.95 µM
same,TGI,NCI/ADR-RES ovarian,13.3 µM
same,GI50,U251 CNS,1.89 µM
same,TGI,U251 CNS,4.53 µM
same,GI50,MDA-MB-435,1.14 µM
same,TGI,MDA-MB-435,3.07 µM
same,GI50,UACC-257 melanoma,1.37 µM
same,TGI,UACC-257 melanoma,2.92 µM
same,GI50,SNB-19 CNS,3.49 µM
same,TGI,SNB-19 CNS,14.9 µM
same,GI50,T-47D breast,0.279 µM
same,TGI,T-47D breast,1.42 µM
same,GI50,SN12C renal,1.78 µM
same,TGI,SN12C renal,3.83 µM
same,GI50,OVCAR-8 ovarian,0.665 µM
same,TGI,OVCAR-8 ovarian,2.22 µM
same,GI50,MALME-3M melanoma,1.4 µM
same,TGI,MALME-3M melanoma,3.4 µM
same,GI50,HCT-116 colon,0.198 µM
same,TGI,HCT-116 colon,0.4 µM
same,GI50,NCI-H460 lung,2.27 µM
same,TGI,NCI-H460 lung,5.3 µM
same,GI50,HL-60(TB) leukemia,0.694 µM
same,TGI,HL-60(TB) leukemia,2.75 µM
same,GI50,HOP-92 NSCLC,1.46 µM
same,TGI,HOP-92 NSCLC,3.01 µM
same,GI50,A549 NSCLC,2.88 µM
same,TGI,A549 NSCLC,10.1 µM
same,GI50,HCT-15 colon,0.277 µM
same,TGI,HCT-15 colon,0.849 µM
same,GI50,DU-145 prostate,1.46 µM
same,TGI,DU-145 prostate,2.91 µM
same,GI50,OVCAR-3 ovarian,0.511 µM
same,TGI,OVCAR-3 ovarian,1.67 µM
same,GI50,SK-MEL-28 melanoma,1.62 µM
same,TGI,SK-MEL-28 melanoma,3.36 µM
same,GI50,RXF 393 renal,0.527 µM
same,TGI,RXF 393 renal,1.77 µM
same,GI50,OVCAR-5 ovarian,1.57 µM
same,TGI,OVCAR-5 ovarian,2.95 µM
same,GI50,SK-OV-3 ovarian,4.67 µM
same,TGI,SK-OV-3 ovarian,19.3 µM
same,GI50,A498 renal,1.72 µM
same,TGI,A498 renal,4.12 µM
same,GI50,BT-549 breast,1.86 µM
same,TGI,BT-549 breast,3.39 µM
same,GI50,NCI-H522 lung,0.233 µM
same,TGI,NCI-H522 lung,0.61 µM
same,GI50,NCI-H23 lung,2.02 µM
same,TGI,NCI-H23 lung,4.83 µM
same,GI50,K-562 leukemia,0.302 µM
same,TGI,K-562 leukemia,1.38 µM
same,GI50,TK-10 renal,0.311 µM
same,TGI,TK-10 renal,1.44 µM
same,GI50,UO-31 renal,0.236 µM
same,TGI,UO-31 renal,0.846 µM
same,GI50,SK-MEL-2 melanoma,1.87 µM
same,TGI,SK-MEL-2 melanoma,3.78 µM
same,GI50,MDA-MB-231 breast,1.31 µM
same,TGI,MDA-MB-231 breast,2.83 µM
same,GI50,PC-3 prostate,2.03 µM
same,TGI,PC-3 prostate,5.4 µM
CCCCSSC(=S)N(CC)CC,GI50,HCC-2998 colon,> 100 µM
same,TGI,HCC-2998 colon,> 100 µM
same,GI50,CCRF-CEM leukemia,18.4 µM
same,TGI,CCRF-CEM leukemia,> 100 µM
same,GI50,SW-620 colon,16.7 µM
same,TGI,SW-620 colon,32.9 µM
same,GI50,UACC-62 melanoma,34.2 µM
same,TGI,UACC-62 melanoma,> 100 µM
same,GI50,SF-295 CNS,37.1 µM
same,TGI,SF-295 CNS,> 100 µM
same,GI50,HS 578T breast,38.6 µM
same,TGI,HS 578T breast,> 100 µM
same,GI50,SK-MEL-5 melanoma,21 µM
same,TGI,SK-MEL-5 melanoma,> 100 µM
same,GI50,ACHN renal,46.9 µM
same,TGI,ACHN renal,> 100 µM
same,GI50,SF-268 CNS,41.7 µM
same,TGI,SF-268 CNS,> 100 µM
same,GI50,CAKI-1 renal,18.3 µM
same,TGI,CAKI-1 renal,54.5 µM
same,GI50,MOLT-4 leukemia,20.2 µM
same,TGI,MOLT-4 leukemia,54.9 µM
same,GI50,LOX IMVI melanoma,20.6 µM
same,TGI,LOX IMVI melanoma,48.8 µM
same,GI50,M14 melanoma,25.7 µM
same,TGI,M14 melanoma,87 µM
same,GI50,SF-539 CNS,21.1 µM
same,TGI,SF-539 CNS,56.5 µM
same,GI50,786-0 renal,> 100 µM
same,TGI,786-0 renal,> 100 µM
same,GI50,SNB-75 CNS,55.5 µM
same,TGI,SNB-75 CNS,> 100 µM
same,GI50,RPMI-8226 leukemia,17.9 µM
same,TGI,RPMI-8226 leukemia,40.1 µM
same,GI50,HOP-62 NSCLC,> 100 µM
same,TGI,HOP-62 NSCLC,> 100 µM
same,GI50,OVCAR-4 ovarian,16.9 µM
same,TGI,OVCAR-4 ovarian,32.3 µM
same,GI50,NCI-H226 lung,> 100 µM
same,TGI,NCI-H226 lung,> 100 µM
same,GI50,NCI/ADR-RES ovarian,34.3 µM
same,TGI,NCI/ADR-RES ovarian,> 100 µM
same,GI50,EKVX NSCLC,> 100 µM
same,TGI,EKVX NSCLC,> 100 µM
same,GI50,U251 CNS,28.8 µM
same,TGI,U251 CNS,> 100 µM
same,GI50,MDA-MB-435,33.9 µM
same,TGI,MDA-MB-435,> 100 µM
same,GI50,UACC-257 melanoma,79.5 µM
same,TGI,UACC-257 melanoma,> 100 µM
same,GI50,SNB-19 CNS,> 100 µM
same,TGI,SNB-19 CNS,> 100 µM
same,GI50,T-47D breast,90.5 µM
same,TGI,T-47D breast,> 100 µM
same,GI50,SN12C renal,35.7 µM
same,TGI,SN12C renal,> 100 µM
same,GI50,OVCAR-8 ovarian,34.3 µM
same,TGI,OVCAR-8 ovarian,> 100 µM
same,GI50,MALME-3M melanoma,32.4 µM
same,TGI,MALME-3M melanoma,> 100 µM
same,GI50,HCT-116 colon,19 µM
same,TGI,HCT-116 colon,37 µM
same,GI50,NCI-H460 lung,25.4 µM
same,TGI,NCI-H460 lung,> 100 µM
same,GI50,HL-60(TB) leukemia,12.4 µM
same,TGI,HL-60(TB) leukemia,69.2 µM
same,GI50,HOP-92 NSCLC,26.9 µM
same,TGI,HOP-92 NSCLC,> 100 µM
same,GI50,A549 NSCLC,> 100 µM
same,TGI,A549 NSCLC,> 100 µM
same,GI50,HCT-15 colon,73.6 µM
same,TGI,HCT-15 colon,> 100 µM
same,GI50,DU-145 prostate,53.9 µM
same,TGI,DU-145 prostate,> 100 µM
same,GI50,OVCAR-3 ovarian,20.4 µM
same,TGI,OVCAR-3 ovarian,42.6 µM
same,GI50,SK-MEL-28 melanoma,23.4 µM
same,TGI,SK-MEL-28 melanoma,78.3 µM
same,GI50,RXF 393 renal,23.3 µM
same,TGI,RXF 393 renal,49.4 µM
same,GI50,OVCAR-5 ovarian,36.4 µM
same,TGI,OVCAR-5 ovarian,> 100 µM
same,GI50,SK-OV-3 ovarian,> 100 µM
same,TGI,SK-OV-3 ovarian,> 100 µM
same,GI50,A498 renal,> 100 µM
same,TGI,A498 renal,> 100 µM
same,GI50,BT-549 breast,26.1 µM
same,TGI,BT-549 breast,75.9 µM
same,GI50,NCI-H23 lung,> 100 µM
same,TGI,NCI-H23 lung,> 100 µM
same,GI50,K-562 leukemia,17.5 µM
same,TGI,K-562 leukemia,40.1 µM
same,GI50,TK-10 renal,41.2 µM
same,TGI,TK-10 renal,> 100 µM
same,GI50,UO-31 renal,20.9 µM
same,TGI,UO-31 renal,47.6 µM
same,GI50,SK-MEL-2 melanoma,57.7 µM
same,TGI,SK-MEL-2 melanoma,> 100 µM
same,GI50,MDA-MB-231 breast,32.4 µM
same,TGI,MDA-MB-231 breast,> 100 µM
same,GI50,PC-3 prostate,34.3 µM
same,TGI,PC-3 prostate,> 100 µM
